pIC50: −log10 of the molar value.
Assays:
[1] = system: MV4;11 WT cells; experiment: CellTiter-Glo cell viability, WT MV4;11 cells; assay type: cell-based; details: Homo sapiens, MV4-11; 24 h, CTG
Method: (§1) CellTiter-Glo cell viability and CytoTox-Fluor cell death assays. Cells were plated (2,000 cells per well) in white, 384-well clear-bottom plates (Corning) using an EL406 Microplate Washer/Dispenser (BioTek) in 25 μL final volume of medium. To the cell plates were added compounds at different concentrations using a pintool (CyBio) and the plates were allowed to incubate in the incubator. After incubation for indicated times, CytoTox-Fluor reagent (Promega, G9262) was added according to the manufacturer's protocol. The assay plates were then incubated for another 30 min before fluorescence was recorded using a Cytation 5 Cell Imaging Multi-Mode Reader (BioTek). Next, CellTiter-Glo reagent (Promega, G7573) was subsequently added to the assay plates following the manufacturer's protocol. Assay plates were shaken on an orbital shaker for 2 min and incubated at 25° C. for 10 min. Luminescence was then read using a Cytation 5 Cell Imaging Multi-Mode Reader (BioTek).

[2] = system: human resting T cells; experiment: GSDMD cleavage in human resting T cells; assay type: cell-based; details: 20 μM, 24 h
Text: Human primary cell isolation and culture. Isolated human primary cells were obtained from Astarte Biologics. All cells were >90% purity, as validated by flow cytometry by Astarte Biologics. T cells were thawed in RPMI-1640 medium supplemented with 10% FBS and cultured in RPMI-1640 medium, 10% fetal bovine serum (FBS), and 30 U/mL IL-2 (Peprotech).
(§2) LDH cytotoxicity and immunoblotting assays. HEK293T cells were transiently transfected and treated with inhibitors as indicated. MV4;11, OCI AML2, THP-1, and RAW264.7 cells were plated in 12-well culture plates at 5×10^5 cells/well and treated as indicated. Supernatants were analyzed for LDH activity using the Pierce LDH Cytotoxicity Assay Kit (Life Technologies). LDH activity was quantified relative to a lysis control where cells were lysed in 80 μL of a 9% Triton X-100 solution. For immunoblotting, cells were washed 2× in PBS (pH=7.4), resuspended in PBS, and lysed by sonication. Protein concentrations were determined and normalized using the DCA Protein Assay kit (Bio-Rad). The samples were separated by SDS-PAGE, immunoblotted, and visualized using the Odyssey Imaging System (Li-Cor).

[3] = system: OCI-AML2 cells; experiment: CellTiter-Glo cell viability, OCI-AML2 cells (WT, CARD8-/-); assay type: cell-based; details: OCI-AML2 WT vs CARD8-/-, 24 h, CTG
Method: as §1

[4] = system: MV4;11 cells; experiment: Propidium iodide uptake, MV4;11 cells (WT, CASP1-/-, CARD8-/-); assay type: cell-based; details: MV4;11 WT vs CASP1-/- or CARD8-/-, 6.25 μM
Method: Propidium iodideflux analysis. 2×10^4 MV4;11 or OCI-AML2 cells were plated in 384-well, black, clear-bottom plate (Corning) in RPMI medium. Cells were then treated as indicated and propidium iodide (PI) was added at a final concentration of 10 μM. PI fluorescence was measured at (Ex/Em: 535/617 nm) recorded at 37° C. every 5 mins in a Cytation 5 Cell Imaging Multi-Mode Reader (BioTek). The obtained measurements were baseline corrected to vehicle/DMSO and normalized to maximum response.

[5] = system: MV4;11 CASP1-/- cells; experiment: CellTiter-Glo cell viability, CASP1-/- MV4;11 cells; assay type: cell-based; details: Homo sapiens, MV4-11; 24 h, CTG
Method: Cloning. CASP1^−/− MV4;11 cells^12; CARD8^−/− MV4;11, THP-1, OCI-AML2 cells^14; DPP8/9^−/− THP-1^12; PEPD^−/−, XPNPEP1^−/−, PEPD XPNPEP1^−/− THP-1 cells were generated. Plasmids for CARD8 variants, CASP1, GSDMD, dTAG-CARD8^ZUC were cloned as described previously (Hollingsworth et al., 2021; Johnson et al., 2018; Sharif et al., 2021).
as §1

[6] = system: primary bone marrow-derived macrophages (BMDMs) and mouse RAW264.7 cells; experiment: LDH release and GSDMD cleavage in BMDMs and RAW264.7 cells (mouse NLRP1); assay type: cell-based; details: VbP 10 μM, CQ31/CQ80 20 μM, 24 h
Method: Mouse BMDM isolation and culture. Bone marrow was harvested from the femurs and tibias of 7-12-week-old C57BL/6J mice. Briefly, femurs and tibias were harvested from mice and crushed with a mortar and pestle in cold 1×PBS supplemented with 2.5% FBS. The mixture was passed through a 70-μm nylon cell strainer. RBCs were lysed for 4-5 min on ice in 1×RBC lysis buffer (Biolegend) and cells were centrifuged at 300×g for 5 min at 4° C. The cell pellet was washed in cold 1×PBS supplemented with 2.5% FBS before being passed again through in a 70-μm nylon cell strainer and counted. Counted cells were plated on non-tissue culture 10-cm plates at 5-10×10^6 cells per plate in DMEM supplemented with 10% FBS and 15-20% L-cell media. Cells were incubated at 37° C. for 6 days before replating and assaying as indicated.
as §2

[7] = system: MV4;11, OCI-AML2, and THP-1 cells; experiment: LDH release and GSDMD cleavage immunoblot; assay type: cell-based; details: WT vs CARD8-/- cells, 20 μM, 24 h
Method: as §2

[8] = system: N/TERT-1 keratinocytes; experiment: Cell viability of N/TERT-1 keratinocytes (NLRP1 inflammasome); assay type: cell-based, human; details: VbP 10 μM, CQ compounds 20 μM, 24 h, CTG
Method: Cell Culture. HEK293T, THP-1, RAW264.7 cells were purchased from ATCC. MV4;11, OCI-AML2 cells were purchased from DSMZ. N/TERT1 cells were a gift from the Rheinwald Lab (Dickson et al., 2000). HEK293T and RAW264.7 cells were grown in Dulbecco's Modified Eagle's Medium (DMEM) with L-glutamine and 10% fetal bovine serum (FBS). N/TERT1 cells were grown in Keratinocyte serum free medium (KSFM) supplemented with 1× penicillin/streptomycin, bovine pituitary extract (25 μg/ml) and epidermal growth factor (EGF) (0.2 ng/ml). All other cell lines were grown in Roswell Park Memorial Institute (RPMI) medium 1640 with L-glutamine and 10% fetal bovine serum (FBS). All cells were grown at 37° C. in a 5% CO2 atmosphere incubator. Cell lines were regularly tested for mycoplasma using the MycoAlert™ Mycoplasma Detection Kit (Lonza).
as §1

`COC(=O)[C@@H]1CCCN1C(=O)[C@@H](O)[C@H](N)CC(C)C` [CQ31] was tested, and the pIC50 [1] was 5.42, the GSDMD cleavage [2] was “induced GSDMD cleavage” and the cell death [3] was “induced cell death in WT, but not CARD8−/−”. For the same molecule, the PI uptake [4] was “induced PI uptake in WT, but not CASP1−/− or CARD8−/−”, the pIC50 [5] was less than 4.00 and the “pyroptosis (LDH release and GSDMD cleavage)” value [6] was “only VbP induced pyroptosis”. For the same molecule, the “LDH release and GSDMD cleavage” value [7] was “induced lactate dehydrogenase (LDH) release and GSDMD cleavage” and the “cell death in N/TERT-1 keratinocytes” value [8] was “Only VbP induced cell death”.

With `COC(=O)[C@H](CC(C)C)NC(=O)[C@@H]1CCCN1C(=O)[C@@H](O)[C@H](N)CC(C)C` [CQ80, Methyl ((2S,3R)-3-amino-2-hydroxy-5-methylhexanoyl)-L-prolyl-L-leucinate] the pIC50 [1] was 6.57, the GSDMD cleavage [2] was “induced GSDMD cleavage” and the cell death [3] was “induced cell death in WT, but not CARD8−/−”. For the same molecule, the PI uptake [4] was “induced PI uptake in WT, but not CASP1−/− or CARD8−/−”, the pIC50 [5] was less than 4.70 and the “pyroptosis (LDH release and GSDMD cleavage)” value [6] was “only VbP induced pyroptosis”. The “LDH release and GSDMD cleavage” value [7] was “induced lactate dehydrogenase (LDH) release and GSDMD cleavage” and the “cell death in N/TERT-1 keratinocytes” value [8] was “Only VbP induced cell death”.
